# In ChEMBL document CHEMBL1158408, “Large-scale application of high-throughput molecular mechanics with Poisson-Boltzmann surface area for routine physics-based scoring of protein-ligand complexes” (J Med Chem, 2009):
# Target: Urokinase-type plasminogen activator (Homo sapiens, UniProt P00749)
row,Ki [µM],SMILES
1,5.01,Nc1ccc2cc(NCCc3ccccc3)cc(Nc3ncccn3)c2n1
2,1.26,CN(C)Cc1ccc(/C=C/c2cc(Br)c3cc(C(=N)N)ccc3c2)o1
3,0.398,CCC(C)/C=C/c1cc(C(=O)OC)cc2ccc(C(=N)N)cc12 (stereo unspecified)
4,0.1,C=CCN1CCc2cc(NC(=O)c3ccc4cc(C(=N)N)ccc4c3)ccc2C1
5,39.8,COc1cc(Nc2ncccn2)c2nc(N)ccc2c1
6,10,Nc1ccc2cc(NC(=O)CCc3ccccc3)ccc2n1
7,0.00158,CC(C)C1=NCCc2ccc(NC(=O)c3cc(Nc4ncccn4)c4cc(C(=N)N)ccc4c3)cc21
8,1,N=C(N)c1ccc2cc(Nc3ncccn3)ccc2c1
9,0.251,N=C(N)c1ccc2cc(CCc3ccc4c(c3)CCNC4)ccc2c1
10,10,Nc1ccc2cccc(NC(=O)C3CC3)c2n1
11,3.98,N=C(N)NC(=O)c1cc(Br)ccc1N
12,3.16,N=C(N)c1ccc2cc(/C=C/CCc3cccnc3)cc(Br)c2c1
13,0.251,N=C(N)c1ccc2cc(C(=O)Nc3ccc4c(c3)CCCN4)ccc2c1
14,0.0316,N=C(N)c1ccc2cc(CCc3ccc(CN4CCCC4)cc3)cc(Nc3ncccn3)c2c1
15,0.251,N=C(N)c1ccc2cc(C(=O)Nc3ccc4c(c3)OCO4)ccc2c1
16,5.01,Nc1ccc2cccc(NS(=O)(=O)c3cc(Br)c(Br)s3)c2n1
17,10,Nc1ccc2ccc(C(=O)NCc3ccccc3)cc2n1
18,31.6,N#Cc1ccccc1COc1cccc2ccc(N)nc12
19,15.8,Nc1ccc2cccc(NS(=O)(=O)c3ccc4ccccc4c3)c2n1
20,0.316,N=C(N)NC(=O)c1nc(-c2ccoc2)c(NCCCc2ccccc2)nc1N
21,6.31,N=C(N)c1ccc2ccccc2c1
